Results as given in PMC9714921 (PLOS Pathogens, 2022).
Values joined by “and” are separate entries in the source; they are usually repeats but may differ in a detail not shown here. Identical values can stand only once.

How the values were obtained:
[1] = biological target: Asu-ACR-16 (Ascaris suum, UniProt F1KYJ9); experiment: cell-based; type: cell-based
Description: (§1) cRNA for oocyte injection was prepared with the mMESSAGE mMACHINE T7 kit following manufacturers protocol (Ambion, USA). Concentration was determined using a Nanodrop spectrophotometer. Desired subunit combinations with associated accessory proteins were mixed and diluted with nuclease-free water to a final concentration of 250 ng/uL for each construct.
(§2) Adult female X. laevis oocyte extraction was performed in accordance with the McGill University Animal Use Protocol 2015–7758 following standard protocol. Briefly, frog ovary lobes were placed in a Ca^2+-free OR2 solution (82 mM NaCl, 2 mM KCl, 1 mM MgCl2, 5 mM HEPES buffer, pH 7.3) and manually divided into clusters of <10 oocytes with thin tweezers followed by a 90-minute incubation in 10 mg/mL collagenase type II (Sigma-Aldrich, USA). Oocytes were washed in Ca^2+-free OR2 and placed ND96 solution (NaCl 96 mM, KCl 2 mM, CaCl2 1.8 mM, MgCl2 1 mM and HEPES 5 mM, pH 7.3) supplemented with sodium pyruvate 2.5 mM [86] and incubated at 18°C until cRNA injection. Oocytes were injected with 50 nL (12.5 ng of each injected gene) of the desired cRNA subunit and accessory protein combination mix with the NanojectII (Drummond Scientific, USA). Following injection, oocytes were incubated in ND96 buffer at 18°C until electrophysiology. All electrophysiology was conducted two days post-injection, except for the expression analysis assay in which oocytes were measured every day after injection for three consecutive days.
(§3) All drugs were dissolved in recording solution (NaCl 100 mM, KCl 2.5 mM, CaCl2 1 mM, HEPES 5 mM, pH 7.3) to a stock concentration of 10 mM and diluted to their final recording concentrations. Oxantel and bephenium were first dissolved in DMSO to ensure a final recording concentration contained less than 0.1% DMSO. For agonist profiling, all drugs were diluted to a concentration of 100 μM.
(§4) Oocytes were placed individually in an RC3Z chamber (Harvard Apparatus, USA) submerged in recording solution (NaCl 100 mM, KCl 2.5 mM, CaCl2 1 mM, HEPES 5 mM, pH 7.3). The RC3Z chamber was connected to a perfusion system containing recording solution and ligand solutions. Pulled glass capillaries (World Precision Instruments, USA) were filled with 3M KCl and the tips clipped and checked for appropriate resistance (between 0.5 and 5 MΩ). A 3M KCl agar bridge grounded the oocyte bath chamber. Measurements were made using an Axon Axoclamp 900A amplifier with Digidata1550M. […] Ligand solutions were applied to the oocytes with an approximate flow rate of 1.2 m/s and current responses measured. Oocytes were exposed to the ligand solution until a distinct current peak was observed followed by a wash with the recording solution until current returned to baseline for a minimum of 10 seconds until the next ligand exposure. For BAPTA-AM exposed oocytes, oocytes were incubated in 100 μM BAPTA-AM for four hours prior to electrophysiology recording. Data was analyzed using Clampex 9.2 (Axon Instruments, USA) and statistical analysis and graphs produced in Prism (GraphPad version 9.1). T-tests were used to compare responses with error bars representing standard error. For concentration-response curves, individual oocyte current response to the different ligand concentrations were normalized to the response obtained with 300 μM. Data was fit using the Graphpad “log(agonist) vs normalized response–variable slope” equation, with 95% confidence intervals being reported. […] For examples of oocyte responses, recordings were filtered in Clampfit using the lowband pass at 40 Hz cutoff.

[2] = biological target: Tzc-ACR-16 (Thelazia callipaeda, UniProt A0A158RD20); experiment: cell-based; type: cell-based
Description: as §1, §2, §3, §4

[3] = tested on: Asu-ACR-16-REM; experiment: Voltage-clamp electrophysiology, coding-sequence modified ACR-16 in oocytes; type: cell-based, A. suum; details: B. malayi ric-3 co-injected; agonist not named in the legend (ACh by the matching native values)
Description: B. malayi acr-16 and accessory proteins ric-3, unc-50, unc-74 and molo-1 were cloned from adult female B. malayi cDNA received as a gift from Dr. T. Geary using the primers described in S1 Table. B. malayi eat-18 was prepared from two overlapping oligonucleotide primers. Other subunits were synthesized from their predicted genome sequence (Gene Universal, USA) (S2 Table). […] All sequences were cloned into the pTD2 oocyte expression vector. Asu-ACR-16 and Tzc-ACR-16 chimeras were constructed using appropriate restriction enzymes, reciprocal exchange through ligation and confirmed by sequencing (McLab, USA).
as §1
Adult female X. laevis oocyte extraction was performed in accordance with the McGill University Animal Use Protocol 2015–7758 following standard protocol. […] All electrophysiology was conducted two days post-injection, except for the expression analysis assay in which oocytes were measured every day after injection for three consecutive days. […]

[4] = No accessory protein, listed as acetylcholine
[5] = co-injected: Bma-ric-3 (reference condition)
[6] = co-injected: Bma-ric-3 (reference condition), listed as acetylcholine
[7] = co-injected: Bma-ric-3 + Bma-eat-18
[8] = co-injected: Bma-ric-3 + Bma-molo-1
[9] = co-injected: Bma-ric-3 + Bma-unc-50 + Bma-unc-74
[10] = co-injected: Bma-ric-3 + Bma-unc-50 + Bma-unc-74 + Bma-eat-18
[11] = co-injected: Bma-ric-3 + Cel-emc-6
[12] = co-injected: Bma-ric-3 + Cel-nra-2 + Cel-nra-4
[13] = co-injected: Hco-ric-3, listed as acetylcholine

Chain of Asu-ACR-16 (F1KYJ9 entry or part of it): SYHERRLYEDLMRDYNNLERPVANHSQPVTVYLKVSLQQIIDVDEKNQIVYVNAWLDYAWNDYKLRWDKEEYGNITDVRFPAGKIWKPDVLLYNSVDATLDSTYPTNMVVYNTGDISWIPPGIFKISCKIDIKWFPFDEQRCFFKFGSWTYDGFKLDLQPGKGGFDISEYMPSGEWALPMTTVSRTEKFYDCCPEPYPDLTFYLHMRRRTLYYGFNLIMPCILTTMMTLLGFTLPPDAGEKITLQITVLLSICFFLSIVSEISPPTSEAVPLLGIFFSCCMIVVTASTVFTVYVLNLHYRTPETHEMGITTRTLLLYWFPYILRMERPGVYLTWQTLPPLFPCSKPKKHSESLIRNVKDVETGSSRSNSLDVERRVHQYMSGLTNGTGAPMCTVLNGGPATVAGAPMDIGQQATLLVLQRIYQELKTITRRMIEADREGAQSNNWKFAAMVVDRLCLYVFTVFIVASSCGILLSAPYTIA
Chain of Tzc-ACR-16 (A0A158RD20 entry or part of it): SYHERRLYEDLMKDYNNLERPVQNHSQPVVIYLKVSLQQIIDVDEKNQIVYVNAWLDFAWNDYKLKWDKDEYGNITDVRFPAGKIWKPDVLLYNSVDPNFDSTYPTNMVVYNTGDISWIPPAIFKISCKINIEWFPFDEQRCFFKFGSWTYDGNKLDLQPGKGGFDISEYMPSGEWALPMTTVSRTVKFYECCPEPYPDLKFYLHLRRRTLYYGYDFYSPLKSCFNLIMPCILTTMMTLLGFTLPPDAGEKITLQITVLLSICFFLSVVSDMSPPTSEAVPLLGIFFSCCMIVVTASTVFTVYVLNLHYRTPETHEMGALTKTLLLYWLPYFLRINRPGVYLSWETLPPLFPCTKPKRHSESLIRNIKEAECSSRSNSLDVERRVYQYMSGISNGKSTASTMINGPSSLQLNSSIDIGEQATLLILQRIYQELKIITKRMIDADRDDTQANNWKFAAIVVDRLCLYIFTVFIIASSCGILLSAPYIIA

CC(=O)OCC[N+](C)(C)C [ACh, acetylcholine] was tested, and the “response to 100 μM acetylcholine normalized to Day 3 response” value ([1]; Day 1 post-injection) was 44 ± 5%, the “response to 100 μM acetylcholine normalized to Day 3 response” value ([1]; Day 2 post-injection) was 88 ± 5% and the “current response to 100 μM acetylcholine” value ([1]; No accessory protein) was 24 ± 10 nA. For the same compound, the “current response to 100 μM acetylcholine” value [1, 4] was 24 ± 10 (n=11) nA, the “current response to 100 μM acetylcholine” value [1, 5] was 2023 ± 68 nA and the “current response to 100 μM acetylcholine” value [1, 6] was 2023 ± 68 (n=11) nA. For the same compound, the “current response to 100 μM acetylcholine” value [1, 7] was 3152 ± 102 (n=13) nA, the “current response to 100 μM acetylcholine” value [1, 8] was 1425 ± 55 (n=15) nA and the “current response to 100 μM acetylcholine” value [1, 9] was 2606 ± 183 (n=10) nA. For the same compound, the “current response to 100 μM acetylcholine” value [1, 10] was 2166 ± 87 (n=12) ns nA, the “current response to 100 μM acetylcholine” value [1, 11] was 2582 ± 89 (n=12) nA and the “current response to 100 μM acetylcholine” value [1, 12] was 2849 ± 152 (n=14) nA. The “current response to 100 μM acetylcholine” value ([1]; co-injected: Hco-ric-3) was 2000–2200 nA and 2052 ± 70 nA, the “current response to 100 μM acetylcholine” value [1, 13] was 2052 ± 66 nA and 2052 ± 66 (n=13) ns nA and the EC50 [2] was 17.4 µM. For the same compound, the “response to 100 μM acetylcholine normalized to Day 3 response” value ([2]; Day 1 post-injection) was 7 ± 1%, the “response to 100 μM acetylcholine normalized to Day 3 response” value ([2]; Day 2 post-injection) was 47 ± 12% and the “current response to 100 μM acetylcholine” value ([2]; No accessory protein) was 0 ± 0 nA. The “current response to 100 μM acetylcholine” value [2, 4] was 0 ± 0 (n=15) nA, the “current response to 100 μM acetylcholine” value [2, 5] was 818 ± 112 nA and the “current response to 100 μM acetylcholine” value [2, 6] was 818 ± 112 (n=13) nA. For the same compound, the “current response to 100 μM acetylcholine” value [2, 7] was 791 ± 119 (n=8) ns nA, the “current response to 100 μM acetylcholine” value [2, 8] was 660 ± 76 (n=15) ns nA and the “current response to 100 μM acetylcholine” value [2, 9] was 367 ± 43 nA. For the same compound, the “current response to 100 μM acetylcholine” value [2, 10] was 964 ± 101 (n=15) ns nA, the “current response to 100 μM acetylcholine” value ([2]; co-injected: Bma-ric-3 + Bma-unc-50 + Bma-unc-74, listed as acetylcholine) was 367 ± 43 (n=15) nA and the “current response to 100 μM acetylcholine” value [2, 11] was 720 ± 70 (n=13) ns nA. The “current response to 100 μM acetylcholine” value [2, 12] was 1263 ± 88 nA, the “current response to 100 μM acetylcholine” value ([2]; co-injected: Bma-ric-3 + Cel-nra-2 + Cel-nra-4, listed as acetylcholine) was 1263 ± 88 (n=15) nA and the “current response to 100 μM acetylcholine” value ([2]; co-injected: Hco-ric-3) was 400–600 nA. The “current response to 100 μM acetylcholine” value [2, 13] was 563 ± 39 nA and 563 ± 39 (n=13) nA and the current response [3] was 2197 ± 383 nA.
